Patent US10759796B2, “CXCR4 inhibitors and uses thereof” (X4 Pharmaceuticals, Inc., priority 2016, dated 2020)
pIC50: −log10 of the molar value.

How the values were obtained:
[1] = target: CXCR-4 transfected U87 cell line (U87.CXCR4) (Homo sapiens (Human), UniProt P61073); assay: Intracellular CXCL-12-induced calcium mobilization assay (FLIPR); format: cell-based; details: U87.CXCR4 cells, CXCL-12 25-50 ng/mL; read-out: IC50 CXCL-12 Ca2+ flux U87.CXCR4+
Outline: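 U87.CXCR4 cells were seeded at 20,000 per well, cultured 12 hours, then loaded with 4 μM Fluo-2 AM for 45 min at 37° C. in HBSS with 20 mM HEPES and 0.2% BSA, pH 7.4. Calcium flux triggered by CXCL-12 (25-50 ng/mL) was tracked over time by FLIPR fluorescence at 37° C.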

[2] = target: Jurkat cells expressing CXCR4 (Homo sapiens (Human), UniProt P61073); assay: Chemokine (CXCL12-AF647) binding inhibition assay; details: CXCL12-AF647 25 ng/mL, read-out: IC50 CXCL-12 binding Jurkat
Outline: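 Cells in HBSS, 20 mM HEPES, 0.2% BSA, pH 7.4, preincubated 15 min at room temperature with compound, then 25 ng/mL CXCL12-AF647 for 30 min. After washing and paraformaldehyde fixation, bound ligand read by flow cytometry; percent inhibition calculated from MFI relative to unlabeled and ligand-only controls.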

in vitro = details: human, Caco-2, pH 7.4
Outline: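 Compounds at 10 μM in HBSS pH 7.4 (0.1–0.3% DMSO) were dosed on Caco-2 monolayers, apical-to-basolateral and basolateral-to-apical, for 90 min at 37 °C, in duplicate. Monolayer integrity was checked by TEER and lucifer yellow flux, read by fluorescence at 485/535 nm. Compound was quantified by LC-MS/MS and Papp calculated.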

Chain of Jurkat cells expressing CXCR4 (P61073 whole entry): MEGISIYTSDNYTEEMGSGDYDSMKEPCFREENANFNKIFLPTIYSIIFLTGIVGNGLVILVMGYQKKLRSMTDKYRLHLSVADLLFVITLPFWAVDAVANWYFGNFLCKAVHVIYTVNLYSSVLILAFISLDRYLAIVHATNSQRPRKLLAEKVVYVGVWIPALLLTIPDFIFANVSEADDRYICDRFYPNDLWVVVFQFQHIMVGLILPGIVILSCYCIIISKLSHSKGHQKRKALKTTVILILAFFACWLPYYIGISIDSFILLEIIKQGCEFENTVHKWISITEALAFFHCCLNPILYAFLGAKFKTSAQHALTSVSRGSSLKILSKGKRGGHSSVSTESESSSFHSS
Chain of CXCR-4 transfected U87 cell line (U87.CXCR4) (P61073 whole entry): as above

| Structure (SMILES) | pIC50 [1] | pIC50 [2] | Papp A→B at 90 min, 10 μM (in vitro) [×10⁻⁶ cm/s] | Papp B→A at 90 min, 10 μM (in vitro) [×10⁻⁶ cm/s] | efflux ratio at 90 min, 10 μM (in vitro) |
| --- | --- | --- | --- | --- | --- |
| Cc1cccnc1[C@@H]1CCC[C@H](c2cn3c(N4CCN(C)CC4)ccc(N)c3n2)N1C [Compound I-76] | 7.00 to 11.00 | 7.00 to 11.00 | 0.1 to 10 | 10 to 30 | 10 to 30 |
| Cc1cccnc1[C@@H]1CCC[C@H](c2cn3c(N4CCN5CCCC5C4)cccc3n2)N1C (stereo partly drawn) [Compound I-77] | 7.00 to 11.00 | 7.00 to 11.00 | 10 to 30 | > 30 | 0.1 to 10 |
| Cc1cccnc1[C@@H]1CCC[C@H](c2cn3c(N4CCC(N(C)C)CC4)cccc3n2)N1C [Compound I-78] | 7.00 to 11.00 | 7.00 to 11.00 | 0.1 to 10 | 10 to 30 | > 30 |
| CN1CCN(c2cccc3nc([C@H]4CCC[C@@H](c5ncccc5C5CC5)N4C)cn23)CC1 [Compound I-79] | 7.00 to 11.00 | 7.00 to 11.00 | 0.1 to 10 | 10 to 30 | 0.1 to 10 |
| CN1CCN(c2cccc3nc([C@H]4CCC[C@@H](c5ncccc5C(F)(F)F)N4C)cn23)CC1 [Compound I-80] | 6.00 to 7.00 | 7.00 to 11.00 | 0.1 to 10 | 0.1 to 10 | 0.1 to 10 |
| CN1CCN(c2cccc3nc([C@H]4CCC[C@@H](c5ncccc5OC(F)(F)F)N4C)cn23)CC1 [Compound I-81] | 6.00 to 7.00 | 7.00 to 11.00 | 10 to 30 | 10 to 30 | 0.1 to 10 |
| CN1CCN(c2cccc3nc([C@H]4CCC[C@@H](c5ncccc5Cl)N4C)cn23)CC1 [Compound I-82] | 7.00 to 11.00 | 7.00 to 11.00 | 0.1 to 10 | 10 to 30 | 0.1 to 10 |
| Cc1cccnc1[C@@H]1CCC[C@H](c2nc3ccccn3c2C=C2CCN(C)CC2)N1C [Compound I-83] | 6.00 to 7.00 | 7.00 to 11.00 | 0.1 to 10 | 10 to 30 | 10 to 30 |
| Cc1cccnc1[C@@H]1CCC[C@H](c2nc3cccc(N4CCN(C)CC4)n3c2COC2CC2)N1C [Compound I-85] | 7.00 to 11.00 | 7.00 to 11.00 | 0.1 to 10 | 10 to 30 | 0.1 to 10 |
| Cc1cccnc1[C@@H]1CCC[C@H](c2nc3cccc(N4CCN(C)CC4)n3c2C)N1C [Compound I-86] | 7.00 to 11.00 | 7.00 to 11.00 | 0.1 to 10 | 10 to 30 | 10 to 30 |
| Cc1cccnc1[C@@H]1CCC[C@H](c2cn3c(N4CCN(C)CC4)cccc3n2)N1CCO [Compound I-87] | 7.00 to 11.00 | 7.00 to 11.00 | 0.1 to 10 | 10 to 30 | 10 to 30 |
| CCN1CCN(c2cccc3nc([C@H]4CCC[C@@H](c5ncccc5C)N4C)c(Cl)n23)CC1 [Compound I-88] | 7.00 to 11.00 | 7.00 to 11.00 | 0.1 to 10 | 0.1 to 10 | 0.1 to 10 |
| C#Cc1c([C@H]2CCC[C@@H](c3ncccc3C)N2C)nc2cccc(N3CCN(C)CC3)n12 [Compound I-89] | 7.00 to 11.00 | 7.00 to 11.00 | 0.1 to 10 | 0.1 to 10 | 0.1 to 10 |
| CC(C)c1cccnc1[C@@H]1CCC[C@H](c2nc3cccc(N4CCN(C)CC4)n3c2Cl)N1C [Compound I-91] | ≤ 6.00 | 6.00 to 7.00 | 0.1 to 10 | 0.1 to 10 | 0.1 to 10 |
| Cc1cccnc1[C@@H]1CCC[C@H](c2nc3cccc(N4CCN(C(C)C)CC4)n3c2Cl)N1C [Compound I-92] | 7.00 to 11.00 | 7.00 to 11.00 | 0.1 to 10 | 0.1 to 10 | 0.1 to 10 |
| Cc1cccnc1[C@@H]1CCC[C@H](c2nc3cccc(N4CCN(C5CC5)CC4)n3c2Cl)N1C [Compound I-93] | 6.00 to 7.00 | 7.00 to 11.00 | 10 to 30 | 0.1 to 10 | 0.1 to 10 |
| CO[C@H](c1c([C@H]2CCC[C@@H](c3ncccc3C)N2C)nc2ccccn12)C1CCN(C)CC1 [Compound I-104] | 6.00 to 7.00 | 7.00 to 11.00 | 0.1 to 10 | 10 to 30 | > 30 |
| CO[C@@H](c1c([C@H]2CCC[C@@H](c3ncccc3C)N2C)nc2ccccn12)C1CCN(C)CC1 [Compound I-105] | ≤ 6.00 | 6.00 to 7.00 | 0.1 to 10 | 10 to 30 | > 30 |
| Cc1cccnc1[C@@H]1CCC[C@H](c2cn3c(N4CCN(C)CC4)c(F)ccc3n2)N1C [Compound I-106] | 7.00 to 11.00 | 7.00 to 11.00 | 0.1 to 10 | 10 to 30 | 0.1 to 10 |
| Cc1cccnc1[C@@H]1CCC[C@H](c2cn3c(N4CC5CCC(C4)N5)cccc3n2)N1C [Compound I-109] | 6.00 to 7.00 | 7.00 to 11.00 | 0.1 to 10 | 10 to 30 | > 30 |
| Cc1cccnc1[C@@H]1CCC[C@H](c2cn3c(N4C5CCC4CNC5)cccc3n2)N1C [Compound I-110] | 7.00 to 11.00 | 7.00 to 11.00 | 0.1 to 10 | 10 to 30 | > 30 |
| CCN1CCN(c2cccc3nc([C@H]4CCC[C@@H](c5ncccc5C(C)C)N4C)cn23)CC1 [Compound I-111] | ≤ 6.00 | 6.00 to 7.00 | 0.1 to 10 | 0.1 to 10 | 0.1 to 10 |
| Cc1cccnc1[C@@H]1CCC[C@H](c2nc3cccc(N4CCN(C5CC5)CC4)n3c2CO)N1C [Compound I-112] | 6.00 to 7.00 | 7.00 to 11.00 | 10 to 30 | 10 to 30 | 0.1 to 10 |
| Cc1cccnc1[C@@H]1CCC[C@H](c2nc3cccc(N4CCN5CCCC5C4)n3c2Cl)N1C (stereo partly drawn) [Compound I-113] | 7.00 to 11.00 | 7.00 to 11.00 | 0.1 to 10 | 0.1 to 10 | 0.1 to 10 |
| CN1CCN(c2cccc3nc([C@H]4CCC[C@@H](c5ncccc5Cl)N4C)c(CO)n23)CC1 [Compound I-116] | 7.00 to 11.00 | 7.00 to 11.00 | 0.1 to 10 | 10 to 30 | 0.1 to 10 |
| CC(C)N1CCN(c2cccc3nc([C@H]4CCC[C@@H](c5ncccc5Cl)N4C)c(Cl)n23)CC1 [Compound I-123] | ≤ 6.00 | 7.00 to 11.00 | 0.1 to 10 | 0.1 to 10 | 0.1 to 10 |
| CCN1CCN(c2cccc3nc([C@H]4CCC[C@@H](c5ncccc5Cl)N4C)c(Cl)n23)CC1 [Compound I-125] | 6.00 to 7.00 | 7.00 to 11.00 | 0.1 to 10 | 0.1 to 10 | 0.1 to 10 |
